Test results from ChEMBL document CHEMBL6087399, “Extended structure-activity relationship studies of the [1,2,5]oxadiazolo[3,4-b]pyrazine-containing colistin adjuvants” (Bioorg Med Chem Lett, 2025).
Converted amounts (≈) assume the structure as drawn. Where a SMILES comes first, the peptide text is derived from it.

Legend:
[1] = test system: Escherichia coli; experiment: Potentiation of colistin-induced antibacterial activity against Escherichia coli AR-0493 assessed as minimum re-sensitizing concentration; assay type: functional; conditions: read-out: MEC
[2] = Selectivity index, ratio of GI50 for cytotoxicity against human HepG2 cells to MEC for potentiation of colistin-induced antibacterial activity against Escherichia coli AR-0493 assessed as minimum re-sensitizing concentration; assay type: toxicity, cell-based; conditions: read-out: Selectivity Index
[3] = test system: Escherichia coli; experiment: Antibacterial activity against Escherichia coli AR-0493 by CLSI based susceptibility testing method; assay type: functional
[4] = Cytotoxicity against human HepG2 cells by Cell Titer Glo assay; assay type: toxicity, cell-based
[5] = test system: Klebsiella pneumoniae; experiment: Potentiation of colistin-induced antibacterial activity against Klebsiella pneumoniae AR-0497 harboring mcr-1 gene assessed as colistin MIC at 1 ug/ml; assay type: functional; conditions: dose 1 µg/ml
[6] = test system: Salmonella typhimurium; experiment: Potentiation of colistin-induced antibacterial activity against Salmonella typhimurium AR-0539 harboring mcr-3 gene assessed as colistin MIC at 1 ug/ml; assay type: functional, Salmonella enterica subsp. enterica serovar Typhimurium; conditions: Salmonella enterica, dose 1 µg/ml
[7] = test system: Acinetobacter baumannii; experiment: Potentiation of colistin-induced antibacterial activity against Acinetobacter baumannii AR-0310 assessed as colistin MIC at 1 ug/ml; assay type: functional; conditions: dose 1 µg/ml
[8] = test system: Escherichia coli; experiment: Synergistic antibacterial activity against Escherichia coli AR-0493 assessed as fractional inhibitory concentration index in presence of colistin by Checkerboard broth microdilution assay; assay type: functional
[9] = test system: Escherichia coli; experiment: Potentiation of colistin-induced antibacterial activity against Escherichia coli AR-0538 harboring mcr-2 gene assessed as colistin MIC at 1 ug/ml; assay type: functional; conditions: dose 1 µg/ml
[10] = test system: Pseudomonas aeruginosa; experiment: Potentiation of colistin-induced antibacterial activity against Pseudomonas aeruginosa AR-0239 assessed as colistin MIC at 1 ug/ml; assay type: functional; conditions: dose 1 µg/ml
[11] = test system: Escherichia coli; experiment: Potentiation of colistin-induced antibacterial activity against Escherichia coli AR-0493 harboring mcr-1 gene assessed as colistin MIC at 1 ug/ml; assay type: functional; conditions: dose 1 µg/ml
[12] = test system: Salmonella typhimurium; experiment: Potentiation of colistin-induced antibacterial activity against Salmonella typhimurium AR-0635 harboring mcr-4 gene assessed as colistin MIC at 1 ug/ml; assay type: functional, Salmonella enterica subsp. enterica serovar Typhimurium; conditions: Salmonella enterica, dose 1 µg/ml
[13] = test system: Salmonella typhimurium; experiment: Antibacterial activity against Salmonella typhimurium AR-0539 harboring mcr-3 gene; assay type: functional, Salmonella enterica subsp. enterica serovar Typhimurium; conditions: Salmonella enterica
[14] = test system: Klebsiella pneumoniae; experiment: Antibacterial activity against Klebsiella pneumoniae AR-0497 harboring mcr-1 gene; assay type: functional
[15] = test system: Pseudomonas aeruginosa; experiment: Antibacterial activity against Pseudomonas aeruginosa AR-0239; assay type: functional
[16] = test system: Salmonella typhimurium; experiment: Antibacterial activity against Salmonella typhimurium AR-0635 harboring mcr-4 gene; assay type: functional, Salmonella enterica subsp. enterica serovar Typhimurium; conditions: Salmonella enterica
[17] = test system: Escherichia coli; experiment: Antibacterial activity against Escherichia coli AR-0538 harboring mcr-2 gene; assay type: functional
[18] = test system: Escherichia coli; experiment: Antibacterial activity against Escherichia coli AR-0493 harboring mcr-1 gene; assay type: functional
[19] = test system: Acinetobacter baumannii; experiment: Antibacterial activity against Acinetobacter baumannii AR-0310; assay type: functional

Compound	minimal effective concentration [1] [µg/mL]	selectivity ratio [2]	MIC [3] [mg/L]	GI50 [4] [mg/L]	further results
c1ccc2nc(NCCNc3nc4nonc4nc3NCCNc3ccc4ccccc4n3)ccc2c1	> 16	–	–	–	–
Clc1cccc(Nc2nc3nonc3nc2NC2CC2)c1	1	–	–	–	–
CCCCCCCCCCNc1nc2nonc2nc1NCCCCCCCCCC	> 16	–	–	–	–
CCCCCCNc1nc2nonc2nc1Nc1cccc(Cl)c1	1	–	–	–	–
CCCCCCCCCCCCNc1nc2nonc2nc1NCCCCCCCCCCCC	> 16	–	–	–	–
Clc1cccc(Nc2nc3nonc3nc2NCC2COC2)c1	> 16	–	–	–	–
CCCCCCCNc1nc2nonc2nc1Nc1cccc(Cl)c1	0.5	6.6	> 64	3.3 (≈ 9.15 µM)	–
CCCCNc1nc2nonc2nc1Nc1cccc(Cl)c1	0.5	11	> 64	5.7 (≈ 17.9 µM)	–
Fc1cccc(CNc2nc3nonc3nc2Nc2cccc(Cl)c2)c1	1	–	–	–	–
CCCCCCCNc1nc2nonc2nc1NCCCCCCC	0.5	1.3	> 64	0.65 (≈ 1.87 µM)	–
CC(C)(C)OC(=O)N1CC(CNc2nc3nonc3nc2Nc2cccc(Cl)c2)C1	4	–	–	–	–
Clc1cccc(CNc2nc3nonc3nc2NCc2cccc(Cl)c2)c1	0.5	3.2	> 64	1.6 (≈ 3.99 µM)	–
CCCCCCCCNc1nc2nonc2nc1NCCCCCCCC	4	–	–	–	–
FC(F)(F)c1nc(NCCCNc2nc3nonc3nc2Nc2cccc(Cl)c2)ccc1Cl	0.25	35	> 64	8.7 (≈ 17.4 µM)	MIC [5]: 1 mg/L; MIC [6]: 0.5 mg/L; MIC [7]: 0.25 mg/L; fractional inhibitory concentration index (FICI) [8]: 0.039; MIC [9]: 1 mg/L; MIC [10]: 1 mg/L; MIC [11]: 0.5 mg/L; MIC [12]: 1 mg/L
CCCCCNc1nc2nonc2nc1NCCCCC	1	–	–	–	–
Clc1cccc(Nc2nc3nonc3nc2NCC2CCC2)c1	1	–	–	–	–
Clc1cccc(Nc2nc3nonc3nc2NC2CCCC2)c1	1	–	–	–	–
CC(C)(C)Nc1nc2nonc2nc1Nc1cccc(Cl)c1	2	–	–	–	–
FC(F)(F)Oc1cccc(CNc2nc3nonc3nc2NCc2cccc(OC(F)(F)F)c2)c1	0.125	18	> 64	2.3 (≈ 4.6 µM)	–
FC(F)(F)c1cccc(CNc2nc3nonc3nc2NCc2cccc(C(F)(F)F)c2)c1	> 16	–	–	–	–
CCCCCNc1nc2nonc2nc1Nc1cccc(Cl)c1	0.5	4.3	> 64	2.1 (≈ 6.31 µM)	–
Fc1cccc(CNc2nc3nonc3nc2NCc2cccc(F)c2)c1	> 16	–	–	–	–
FC(F)(F)c1nc(NCCCNc2nc3nonc3nc2NCCCNc2ccc(Cl)c(C(F)(F)F)n2)ccc1Cl	0.25	10	> 64	2.6 (≈ 4.16 µM)	–
Clc1cccc(CNc2nc3nonc3nc2Nc2cccc(Cl)c2)c1	0.5	7.7	> 64	3.8 (≈ 9.81 µM)	–
Nc1nc2nonc2nc1Nc1cccc(Cl)c1	4	–	–	–	–
CC(C)CCNc1nc2nonc2nc1Nc1cccc(Cl)c1	1	–	–	–	–
Clc1cccc(Nc2nc3nonc3nc2NC2CCC2)c1	1	–	–	–	–
[H][C@@]1([C@@H](C)O)NC(=O)[C@H](CCN)NC(=O)[C@H](CCN)NC(=O)[C@H](CC(C)C)NC(=O)[C@@H](CC(C)C)NC(=O)[C@H](CCN)NC(=O)[C@@H](NC(=O)[C@H](CCN)NC[C@H](NC(=O)[C@H](CCN)NC(=O)CCCCC(C)C)[C@@H](C)O)CCNC1=O.[H][C@@]1([C@@H](C)O)NC(=O)[C@H](CCN)NC(=O)[C@H](CCN)NC(=O)[C@H](CC(C)C)NC(=O)[C@@H](CC(C)C)NC(=O)[C@H](CCN)NC(=O)[C@@H](NC(=O)[C@H](CCN)NC[C@H](NC(=O)[C@H](CCN)NC(=O)CCCCC(C)CC)[C@@H](C)O)CCNC1=O (stereo partly drawn) (HELM PEPTIDE1{[C[C@@H](O)[C@H](CN[C@@H](CCN)C(=O)[*:2])N[*:3]].[Dab].[Dab].[dL].L.[Dab].[Dab].T}|PEPTIDE2{[CCC(C)CCCCC(=O)[*:2]].[Dab]}$PEPTIDE1,PEPTIDE2,1:R3-2:R2|PEPTIDE1,PEPTIDE1,2:R3-8:R2$$$V2.0)	–	–	–	–	MIC [13]: 8 mg/L; MIC [14]: 16 mg/L; MIC [15]: 4 mg/L; MIC [16]: 16 mg/L; MIC [17]: 8 mg/L; MIC [18]: 8 mg/L; MIC [19]: 8 mg/L
